Values after ≈ are worked out from the molar mass of the structure shown. Values joined by “and” are separate entries in the source; they are usually repeats but may differ in a detail not shown here. Equal values may be shown once. Each block holds one compound with its values, some of them ahead of it.
Assays:
[1] = system: Streptococcus Group D 9960; experiment: agar-dilution MIC; format: cell-based; conditions: two values = two experiments, 2 median of five, 19 median of three
[2] = system: Staphylococcus aureus; experiment: in vivo experimental bacterial infection, ED50; conditions: mice, two doses subcutaneously; two values = two experiments
[3] = system: Staphylococcus aureus X1.1; experiment: agar-dilution MIC; format: cell-based; conditions: two values = two experiments, 2 median of five, 19 median of three experiments
[4] = system: Streptococcus pyogenes; experiment: in vivo experimental bacterial infection, ED50; conditions: mice; for ED50 Values Streptococcus pyogenes Oral: two doses orally; for ED50 Values Streptococcus pyogenes Subcutaneous: two doses subcutaneously, two values = two experiments
[5] = toxicity test, LD50; conditions: mouse, in vivo, iv; administered intravenously; read-out: LD50 (mg/kg) in Mice
[6] = system: Staphylococcus epidermidis EPI2; experiment: agar-dilution MIC; format: cell-based; conditions: two values = two experiments, 2 median of five, 19 median of three
[7] = system: Staphylococcus aureus V41; experiment: agar-dilution MIC; format: cell-based; conditions: Staphylococcus aureus V41, penicillin-resistant strain; two values = two experiments; 2 median of five, 19 median of three
[8] = system: Streptococcus pyogenes C203; experiment: agar-dilution MIC; format: cell-based; conditions: two values = two experiments, 2 median of five, 19 median of three
[9] = system: Staphylococcus aureus X400; experiment: agar-dilution MIC; format: cell-based; conditions: Staphylococcus aureus X400, methicillin-resistant strain; two values = two experiments; 2 median of five, 19 median of three
[10] = system: Streptococcus Group D X66; experiment: agar-dilution MIC; format: cell-based; conditions: two values = two experiments, 2 median of five, 19 median of three
[11] = system: Staphylococcus epidermidis EPI1; format: cell-based; conditions: two values = two experiments, 2 median of five, 19 median of three
[12] = system: Streptococcus pneumoniae Park I; format: cell-based; conditions: two values = two experiments, 2 median of five, 19 median of three

Compound: CCCCCCCCCCCC(=O)N[C@H](Cc1ccccc1)C(=O)N[C@@H](Cc1c[nH]c2ccccc12)C(=O)N[C@H](CC(N)=O)C(=O)N[C@@H](CC(=O)O)C(=O)N[C@@H]1C(=O)NCC(=O)N[C@@H](CCCN)C(=O)N[C@@H](CC(=O)O)C(=O)N[C@H](C)C(=O)N[C@@H](CC(=O)O)C(=O)NCC(=O)N[C@H](CO)C(=O)N[C@@H]([C@H](C)CC(=O)O)C(=O)N[C@@H](CC(=O)c2ccccc2N)C(=O)O[C@@H]1C [Compound 1]
MIC [1]: 0.5 µg/mL (≈ 0.278 µM)
ED50 Values Staphylococcus aureus Subcutaneous [2]: 1.4 mg/kg × 2 and 2.05 mg/kg × 2
MIC [3]: 0.5 µg/mL (≈ 0.278 µM)
ED50 Values Streptococcus pyogenes Oral [4]: > 200 mg/kg × 2
ED50 Values Streptococcus pyogenes Subcutaneous [4]: < 0.25 mg/kg × 2 and 0.21 mg/kg × 2
LD50 [5]: 250 mg/kg
MIC [6]: 1 µg/mL (≈ 0.557 µM)
MIC [7]: 0.5 µg/mL (≈ 0.278 µM)
MIC [8]: 0.125 µg/mL (≈ 0.0696 µM)
MIC [9]: 1 µg/mL (≈ 0.557 µM)
MIC [10]: 1 µg/mL (≈ 0.557 µM)
MIC [11]: 2 µg/mL (≈ 1.11 µM)

Compound: CCCCCCCCCCCC(=O)NCCCCCCCCCCC(=O)N[C@@H](Cc1c[nH]c2ccccc12)C(=O)N[C@H](CC(N)=O)C(=O)N[C@@H](CC(=O)O)C(=O)N[C@@H]1C(=O)NCC(=O)N[C@@H](CCCN)C(=O)N[C@@H](CC(=O)O)C(=O)N[C@H](C)C(=O)N[C@@H](CC(=O)O)C(=O)NCC(=O)N[C@H](CO)C(=O)N[C@@H]([C@H](C)CC(=O)O)C(=O)N[C@@H](CC(=O)c2ccccc2N)C(=O)O[C@@H]1C [Compound 3]
MIC [1]: 8 µg/mL (≈ 4.37 µM)
ED50 Values Staphylococcus aureus Subcutaneous [2]: > 18 mg/kg × 2
MIC [3]: 2 µg/mL (≈ 1.09 µM)
ED50 Values Streptococcus pyogenes Oral [4]: > 200 mg/kg × 2
ED50 Values Streptococcus pyogenes Subcutaneous [4]: 6.2 mg/kg × 2
LD50 [5]: 600 mg/kg
MIC [6]: 8 µg/mL (≈ 4.37 µM)
MIC [7]: 2 µg/mL (≈ 1.09 µM)
MIC [8]: 2 µg/mL (≈ 1.09 µM)
MIC [9]: 8 µg/mL (≈ 4.37 µM)
MIC [12]: 0.5 µg/mL (≈ 0.273 µM)
MIC [10]: 8 µg/mL (≈ 4.37 µM)
MIC [11]: 8 µg/mL (≈ 4.37 µM)

Compound: CCCCCCCCCCCCC(=O)N[C@@H](Cc1ccccc1)C(=O)N[C@@H](Cc1c[nH]c2ccccc12)C(=O)N[C@H](CC(N)=O)C(=O)N[C@@H](CC(=O)O)C(=O)N[C@@H]1C(=O)NCC(=O)N[C@@H](CCCN)C(=O)N[C@@H](CC(=O)O)C(=O)N[C@H](C)C(=O)N[C@@H](CC(=O)O)C(=O)NCC(=O)N[C@H](CO)C(=O)N[C@@H]([C@H](C)CC(=O)O)C(=O)N[C@@H](CC(=O)c2ccccc2N)C(=O)O[C@@H]1C [Compound 21]
MIC [1]: 0.25 µg/mL (≈ 0.138 µM)
ED50 Values Staphylococcus aureus Subcutaneous [2]: 0.76 mg/kg × 2
MIC [3]: 0.5 µg/mL (≈ 0.276 µM)
ED50 Values Streptococcus pyogenes Oral [4]: > 200 mg/kg × 2
ED50 Values Streptococcus pyogenes Subcutaneous [4]: 0.14 mg/kg × 2
MIC [6]: 2 µg/mL (≈ 1.11 µM)
MIC [7]: 0.5 µg/mL (≈ 0.276 µM)
MIC [8]: 0.125 µg/mL (≈ 0.0691 µM)
MIC [9]: 2 µg/mL (≈ 1.11 µM)
MIC [10]: 1 µg/mL (≈ 0.553 µM)
MIC [11]: 2 µg/mL (≈ 1.11 µM)

Compound: CCCCCC(=O)N[C@@H](Cc1c[nH]c2ccccc12)C(=O)NCCC[C@@H]1NC(=O)CNC(=O)[C@@H](NC(=O)[C@H](CC(=O)O)NC(=O)[C@@H](CC(N)=O)NC(=O)[C@H](Cc2c[nH]c3ccccc23)NC(=O)CCCCCCCCC(C)CC)[C@@H](C)OC(=O)[C@H](CC(=O)c2ccccc2N)NC(=O)[C@H]([C@H](C)CC(=O)O)NC(=O)[C@@H](CO)NC(=O)CNC(=O)[C@H](CC(=O)O)NC(=O)[C@@H](C)NC(=O)[C@H](CC(=O)O)NC1=O (stereo partly shown) [Compound 29]
MIC [1]: 32 µg/mL (≈ 16.4 µM)
ED50 Values Streptococcus pyogenes Oral [4]: > 200 mg/kg × 2
ED50 Values Streptococcus pyogenes Subcutaneous [4]: 10.6 mg/kg × 2
LD50 [5]: 37.5 mg/kg
MIC [9]: 1 µg/mL (≈ 0.514 µM)
MIC [10]: 8 µg/mL (≈ 4.11 µM)

Compound: CCCCCCCCCCC(=O)N[C@@H](Cc1ccccc1)C(=O)N[C@@H](Cc1c[nH]c2ccccc12)C(=O)N[C@H](CC(N)=O)C(=O)N[C@@H](CC(=O)O)C(=O)N[C@@H]1C(=O)NCC(=O)N[C@@H](CCCN)C(=O)N[C@@H](CC(=O)O)C(=O)N[C@H](C)C(=O)N[C@@H](CC(=O)O)C(=O)NCC(=O)N[C@H](CO)C(=O)N[C@@H]([C@H](C)CC(=O)O)C(=O)N[C@@H](CC(=O)c2ccccc2N)C(=O)O[C@@H]1C [Compound 20]
MIC [1]: 2 µg/mL (≈ 1.12 µM)
ED50 Values Staphylococcus aureus Subcutaneous [2]: 1.25 mg/kg × 2
MIC [3]: 0.5 µg/mL (≈ 0.281 µM)
ED50 Values Streptococcus pyogenes Oral [4]: > 200 mg/kg × 2
ED50 Values Streptococcus pyogenes Subcutaneous [4]: 0.35 mg/kg × 2
LD50 [5]: 400 mg/kg
MIC [6]: 2 µg/mL (≈ 1.12 µM)
MIC [7]: 0.5 µg/mL (≈ 0.281 µM)
MIC [8]: 0.125 µg/mL (≈ 0.0701 µM)
MIC [9]: 2 µg/mL (≈ 1.12 µM)
MIC [10]: 4 µg/mL (≈ 2.24 µM)
MIC [11]: 2 µg/mL (≈ 1.12 µM)

Compound: CCCCCCCCCCCC(=O)Nc1ccc(C(=O)N[C@@H](Cc2c[nH]c3ccccc23)C(=O)N[C@H](CC(N)=O)C(=O)N[C@@H](CC(=O)O)C(=O)N[C@@H]2C(=O)NCC(=O)N[C@@H](CCCN)C(=O)N[C@@H](CC(=O)O)C(=O)N[C@H](C)C(=O)N[C@@H](CC(=O)O)C(=O)NCC(=O)N[C@H](CO)C(=O)N[C@@H]([C@H](C)CC(=O)O)C(=O)N[C@@H](CC(=O)c3ccccc3N)C(=O)O[C@@H]2C)cc1 [Compound 4]
ED50 Values Staphylococcus aureus Subcutaneous [2]: < 5 mg/kg × 2
MIC [3]: 4 µg/mL (≈ 2.26 µM)
ED50 Values Streptococcus pyogenes Oral [4]: > 200 mg/kg × 2
ED50 Values Streptococcus pyogenes Subcutaneous [4]: 18.8 mg/kg × 2
LD50 [5]: > 300 mg/kg
MIC [9]: 8 µg/mL (≈ 4.53 µM)

Compound: CCCCCCCCC(=O)N[C@@H](Cc1ccccc1)C(=O)N[C@@H](Cc1c[nH]c2ccccc12)C(=O)N[C@H](CC(N)=O)C(=O)N[C@@H](CC(=O)O)C(=O)N[C@@H]1C(=O)NCC(=O)N[C@@H](CCCN)C(=O)N[C@@H](CC(=O)O)C(=O)N[C@H](C)C(=O)N[C@@H](CC(=O)O)C(=O)NCC(=O)N[C@H](CO)C(=O)N[C@@H]([C@H](C)CC(=O)O)C(=O)N[C@@H](CC(=O)c2ccccc2N)C(=O)O[C@@H]1C [Compound 18]
MIC [1]: 8 µg/mL (≈ 4.56 µM)
ED50 Values Staphylococcus aureus Subcutaneous [2]: 1.38 mg/kg × 2
MIC [3]: 2 µg/mL (≈ 1.14 µM)
ED50 Values Streptococcus pyogenes Oral [4]: 184 mg/kg × 2
ED50 Values Streptococcus pyogenes Subcutaneous [4]: 0.59 mg/kg × 2
LD50 [5]: > 600 mg/kg
MIC [6]: 2 µg/mL (≈ 1.14 µM)
MIC [7]: 2 µg/mL (≈ 1.14 µM)
MIC [8]: 0.5 µg/mL (≈ 0.285 µM)
MIC [9]: 4 µg/mL (≈ 2.28 µM)
MIC [10]: 32 µg/mL (≈ 18.2 µM)
MIC [11]: 4 µg/mL (≈ 2.28 µM)

Compound: CCCCCCCC(=O)N[C@@H](Cc1ccccc1)C(=O)N[C@@H](Cc1c[nH]c2ccccc12)C(=O)N[C@H](CC(N)=O)C(=O)N[C@@H](CC(=O)O)C(=O)N[C@@H]1C(=O)NCC(=O)N[C@@H](CCCN)C(=O)N[C@@H](CC(=O)O)C(=O)N[C@H](C)C(=O)N[C@@H](CC(=O)O)C(=O)NCC(=O)N[C@H](CO)C(=O)N[C@@H]([C@H](C)CC(=O)O)C(=O)N[C@@H](CC(=O)c2ccccc2N)C(=O)O[C@@H]1C [Compound 17]
MIC [1]: 32 µg/mL (≈ 18.4 µM)
ED50 Values Staphylococcus aureus Subcutaneous [2]: 2.58 mg/kg × 2
MIC [3]: 4 µg/mL (≈ 2.3 µM)
ED50 Values Streptococcus pyogenes Oral [4]: > 200 mg/kg × 2
ED50 Values Streptococcus pyogenes Subcutaneous [4]: 1.48 mg/kg × 2
LD50 [5]: 450 mg/kg
MIC [6]: 8 µg/mL (≈ 4.6 µM)
MIC [7]: 8 µg/mL (≈ 4.6 µM)
MIC [8]: 2 µg/mL (≈ 1.15 µM)
MIC [9]: 8 µg/mL (≈ 4.6 µM)
MIC [10]: 128 µg/mL (≈ 73.6 µM)
MIC [11]: 8 µg/mL (≈ 4.6 µM)

MIC [1]: 32 µg/mL (≈ 18 µM)
MIC [3]: 8 µg/mL (≈ 4.49 µM)
MIC [6]: > 128 µg/mL
MIC [7]: > 128 µg/mL
MIC [8]: 1 µg/mL (≈ 0.561 µM)
MIC [9]: > 128 µg/mL
MIC [10]: > 128 µg/mL
MIC [11]: > 128 µg/mL
Compound: CCCCCCCCCCC(=O)N[C@@H](Cc1ccccc1)C(=O)NCCC[C@@H]1NC(=O)CNC(=O)[C@@H](NC(=O)[C@H](CC(=O)O)NC(=O)[C@@H](CC(N)=O)NC(=O)[C@@H](N)Cc2c[nH]c3ccccc23)[C@@H](C)OC(=O)[C@H](CC(=O)c2ccccc2N)NC(=O)[C@H]([C@H](C)CC(=O)O)NC(=O)[C@@H](CO)NC(=O)CNC(=O)[C@H](CC(=O)O)NC(=O)[C@@H](C)NC(=O)[C@H](CC(=O)O)NC1=O [Compound 26]
ED50 Values Staphylococcus aureus Subcutaneous [2]: 9.2 mg/kg × 2
ED50 Values Streptococcus pyogenes Oral [4]: > 200 mg/kg × 2
ED50 Values Streptococcus pyogenes Subcutaneous [4]: > 18 mg/kg × 2

Compound: CCCCCCCCCCCCCC(=O)N[C@@H](Cc1ccccc1)C(=O)N[C@@H](Cc1c[nH]c2ccccc12)C(=O)N[C@H](CC(N)=O)C(=O)N[C@@H](CC(=O)O)C(=O)N[C@@H]1C(=O)NCC(=O)N[C@@H](CCCN)C(=O)N[C@@H](CC(=O)O)C(=O)N[C@H](C)C(=O)N[C@@H](CC(=O)O)C(=O)NCC(=O)N[C@H](CO)C(=O)N[C@@H]([C@H](C)CC(=O)O)C(=O)N[C@@H](CC(=O)c2ccccc2N)C(=O)O[C@@H]1C [Compound 22]
MIC [1]: 0.5 µg/mL (≈ 0.274 µM)
ED50 Values Staphylococcus aureus Subcutaneous [2]: 4.8 mg/kg × 2
MIC [3]: 0.5 µg/mL (≈ 0.274 µM)
ED50 Values Streptococcus pyogenes Oral [4]: > 200 mg/kg × 2
ED50 Values Streptococcus pyogenes Subcutaneous [4]: < 0.27 mg/kg × 2 and 0.36 mg/kg × 2
MIC [6]: 4 µg/mL (≈ 2.19 µM)
MIC [7]: 1 µg/mL (≈ 0.548 µM)
MIC [8]: 0.25 µg/mL (≈ 0.137 µM)
MIC [9]: 2 µg/mL (≈ 1.1 µM)
MIC [10]: 1 µg/mL (≈ 0.548 µM)
MIC [11]: 4 µg/mL (≈ 2.19 µM)
